Measurements published in PMC10155618 (Beilstein Journal of Organic Chemistry, 2023).

Tests used:
[1] = tested on: poly rA–poly rU (RNA, polymer) A/U; experiment: UV thermal melting, 260 nm; conditions: Na+ (sodium cacodylate, Ic = 0.05 mol dm^-3); Na cacodylate pH 7.0; negligible stabilisation; error ±0.5 °C; per base
[2] = tested on: poly rA–poly rU (RNA, polymer) A/U; experiment: fluorimetric titration, Scatchard/Global Fit; conditions: Na+ (sodium cacodylate, Ic = 0.05 mol dm^-3); Na cacodylate pH 7.0; compound 1–2 × 10^-6 M; n fixed 0.2; polynucleotide as phosphates; per base
[3] = target: T1, human DPP III (dipeptidyl peptidase III, DPPIII), inactive mutant E451A (Homo sapiens, UniProt Q9NY33, E451A); experiment: isothermal titration calorimetry, one set of sites, N fixed to […]; type: binding; conditions: read-out: log Ka (converted)
T1 construct: gene DPP3; recombinant, heterologous expression in Escherichia coli, purified according to Spoljaric et al; mono-zinc metalloexopeptidase
T1 sequence (Q9NY33 2-737 E451A): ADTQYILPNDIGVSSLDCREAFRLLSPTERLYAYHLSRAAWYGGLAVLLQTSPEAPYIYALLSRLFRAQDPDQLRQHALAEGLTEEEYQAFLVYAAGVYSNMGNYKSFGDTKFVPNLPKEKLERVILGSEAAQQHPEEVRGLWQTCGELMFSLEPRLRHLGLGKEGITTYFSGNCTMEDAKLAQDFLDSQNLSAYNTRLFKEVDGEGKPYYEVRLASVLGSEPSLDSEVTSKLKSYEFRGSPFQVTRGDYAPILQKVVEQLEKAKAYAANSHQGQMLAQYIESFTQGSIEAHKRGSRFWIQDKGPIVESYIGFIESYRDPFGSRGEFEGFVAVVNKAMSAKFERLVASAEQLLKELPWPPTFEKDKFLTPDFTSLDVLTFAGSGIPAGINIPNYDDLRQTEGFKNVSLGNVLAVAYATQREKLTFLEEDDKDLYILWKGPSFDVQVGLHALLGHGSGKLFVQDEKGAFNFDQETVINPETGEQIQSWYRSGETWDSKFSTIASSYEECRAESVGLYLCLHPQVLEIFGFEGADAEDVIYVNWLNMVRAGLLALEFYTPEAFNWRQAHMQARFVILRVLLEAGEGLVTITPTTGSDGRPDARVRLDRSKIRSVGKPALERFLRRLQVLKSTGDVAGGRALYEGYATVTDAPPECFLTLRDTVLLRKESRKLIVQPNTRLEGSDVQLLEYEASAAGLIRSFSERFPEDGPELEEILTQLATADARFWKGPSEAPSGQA

[4] = tested on: poly dGdC–poly dGdC (DNA, polymer) GC; experiment: fluorimetric titration, Scatchard/Global Fit; conditions: Na+ (sodium cacodylate, Ic = 0.05 mol dm^-3); Na cacodylate pH 7.0; compound 1–2 × 10^-6 M; n fixed 0.2; polynucleotide as phosphates; per base
[5] = tested on: poly dAdT–poly dAdT (DNA, polymer) AT; experiment: fluorimetric titration, Scatchard/Global Fit; conditions: Na+ (sodium cacodylate, Ic = 0.05 mol dm^-3); Na cacodylate pH 7.0; compound 1–2 × 10^-6 M; n fixed 0.2; polynucleotide as phosphates; per base

Row | Structure (SMILES) | ΔTm [1] | log Ka [2] | Kd [3] | log Ka [4] | log Ka [5]
1 | COC(=O)[C@H](Cc1ccc2c(c1)c(C)nc1ccccc12)NC(=O)c1ccc2ccc3cccc4ccc1c2c34 | < 0.5 °C | – | – | – | –
2 | COC(=O)[C@H](Cc1ccc2c(c1)c(C)nc1ccccc12)NC(=O)CCCc1ccc2ccc3cccc4ccc1c2c34 [Phen-Py-1] | < 0.5 °C | 7.07 | 3.39 µM | 6.87 | 5.97
